Source: ChEMBL document CHEMBL5149994, “Anticancer potential of indirubins in medicinal chemistry: Biological activity, structural modification, and structure-activity relationship” (Eur J Med Chem, 2021)
Each block holds one compound with its values, some of them ahead of it.

Columns and labels:
[1] = system: BXPC-3; test: Antiproliferative activity against human BXPC-3 cells assessed as cell growth inhibition measured after 42 hrs by MTS assay; assay type: functional, cell-based; details: BXPC-3, 42 h
[2] = target: Proto-oncogene tyrosine-protein kinase Src (Homo sapiens, UniProt P12931); test: Inhibition of recombinant c-Src (unknown origin)
[3] = system: MIA PaCa-2; test: Antiproliferative activity against human MIA PaCa-2 cells assessed as cell growth inhibition measured after 42 hrs by MTS assay; assay type: functional, cell-based; details: MIA PaCa-2, 42 h
[4] = target: Tyrosine-protein kinase HCK (Homo sapiens, UniProt P08631); test: Inhibition of recombinant Hck (unknown origin)
[5] = target: Tyrosine-protein kinase JAK1 (Homo sapiens, UniProt P23458); test: Inhibition of recombinant JAK1 (unknown origin)
[6] = target: Tyrosine-protein kinase Lyn (Homo sapiens, UniProt P07948); test: Inhibition of recombinant Lyn (unknown origin)
[7] = target: Tyrosine-protein kinase JAK2 (Homo sapiens, UniProt O60674); test: Inhibition of recombinant JAK2 (unknown origin)
[8] = target: Non-receptor tyrosine-protein kinase TYK2 (Homo sapiens, UniProt P29597); test: Inhibition of recombinant Tyk2 (unknown origin)
[9] = system: PANC-1; test: Antiproliferative activity against human PANC-1 cells assessed as cell growth inhibition measured after 42 hrs by MTS assay; assay type: functional, cell-based; details: PANC-1, 42 h
[10] = system: MeWo; test: Antitumor activity against human MeWo cells xenografted in mouse assessed as reduction in tumour volume at 50 mg/kg per day, po administered via oral gavage measured after 14 days relative to control; assay type: functional; parameters: scale not given: the % may be the effect or the level left; details: time 14 day
[11] = system: K562; test: Antitumor activity against human K562 cells xenografted in BALB/c mouse assessed as reduction in tumour volume at 6 mg/kg, ip treated every other day for 2 weeks relative to control; assay type: functional; parameters: scale not given: the % may be the effect or the level left
[12] = system: K-562R; test: Antiproliferative activity against imatinib-resistant human K-562R cells assessed as cell growth inhibition measured after 72 hrs by MTT assay; assay type: functional, cell-based
[13] = Antitumor activity against human TT cells xenografted in BALB/c nu/nu mouse assessed as reduction in tumour weight at 40 mg/kg per day, po administered via oral gavage daily measured after 21 days relative to control; assay type: functional; parameters: scale not given: the % may be the effect or the level left; details: time 21 day
[14] = Antiproliferative activity against human TT cells assessed as cell growth inhibition measured after 72 hrs by EZ-CyTox reagent based analysis; assay type: functional
[15] = target: T1, Receptor-type tyrosine-protein kinase FLT3 (Homo sapiens, UniProt P36888); test: Inhibition of FLT3 (unknown origin)
T1 sequence (P36888 whole entry): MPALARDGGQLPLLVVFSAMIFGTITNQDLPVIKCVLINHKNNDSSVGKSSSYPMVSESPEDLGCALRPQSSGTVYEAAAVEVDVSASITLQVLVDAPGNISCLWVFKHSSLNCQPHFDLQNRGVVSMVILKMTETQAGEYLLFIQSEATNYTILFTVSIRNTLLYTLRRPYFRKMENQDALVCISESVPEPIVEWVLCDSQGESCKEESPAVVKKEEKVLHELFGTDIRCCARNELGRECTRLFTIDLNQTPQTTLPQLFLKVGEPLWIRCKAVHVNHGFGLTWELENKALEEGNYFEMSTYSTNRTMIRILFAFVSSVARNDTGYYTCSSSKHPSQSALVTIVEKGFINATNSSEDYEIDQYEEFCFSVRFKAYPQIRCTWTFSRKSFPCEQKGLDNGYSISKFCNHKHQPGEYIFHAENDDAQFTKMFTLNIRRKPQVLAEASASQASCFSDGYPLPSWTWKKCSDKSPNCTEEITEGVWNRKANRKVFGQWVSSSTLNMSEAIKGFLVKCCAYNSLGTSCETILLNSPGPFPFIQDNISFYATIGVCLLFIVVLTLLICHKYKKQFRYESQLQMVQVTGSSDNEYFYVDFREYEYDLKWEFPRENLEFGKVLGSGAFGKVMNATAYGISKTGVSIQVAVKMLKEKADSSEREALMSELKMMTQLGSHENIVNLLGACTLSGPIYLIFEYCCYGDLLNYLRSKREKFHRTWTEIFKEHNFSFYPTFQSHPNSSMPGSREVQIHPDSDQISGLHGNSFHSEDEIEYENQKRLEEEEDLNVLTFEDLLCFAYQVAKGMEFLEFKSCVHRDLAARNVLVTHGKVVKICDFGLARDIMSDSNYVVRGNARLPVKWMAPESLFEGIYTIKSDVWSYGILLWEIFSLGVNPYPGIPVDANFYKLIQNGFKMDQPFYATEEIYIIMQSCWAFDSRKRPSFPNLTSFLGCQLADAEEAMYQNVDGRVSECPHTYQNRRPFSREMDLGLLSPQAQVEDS

[16] = system: MV4-11; test: Cytotoxicity in human MV4-11 cells assessed as cell growth inhibition incubated for 48 hrs by propidium iodide staining based flow cytometry assay; assay type: functional
[17] = target: T1, Receptor-type tyrosine-protein kinase FLT3; test: Inhibition of recombinant FLT3 (unknown origin) by HTRF assay
[18] = target: Glycogen synthase kinase-3 (Sus scrofa, UniProt B2LUN4+I6LNT8); test: Inhibition of porcine brain GSK-3alpha/beta incubated for 30 mins in presence of [33p]-gamma ATP by scintillation counter analysis
[19] = system: LoVo; test: Cytotoxicity against human LoVo cells assessed as cell growth inhibition by MTT assay; assay type: functional, cell-based
[20] = system: LNCaP; test: Cytotoxicity against human LNCaP cells assessed as cell growth inhibition by MTT assay; assay type: functional, cell-based
[21] = Inhibition of starfish oocyte CDK1/Cyclin B using histone H1 as substrate incubated for 10 mins in presence of [gamma-32P]ATP by scintillation counter analysis; parameters: species or system Marthasterias glacialis
[22] = target: Cyclin-dependent kinase 5/CDK5 activator 1 (Homo sapiens, UniProt Q00535); test: Inhibition of GST-fused CDK5/p25 (unknown origin); assay type: protein-complex assay
[23] = system: MCF7; test: Cytotoxicity against human MCF7 cells assessed as cell growth inhibition by MTT assay; assay type: functional, cell-based
[24] = system: MV4-11; test: Antitumor activity against human MV4-11 cells xenografted in mouse assessed as reduction in tumour volume at 10 mg/kg per day, iv measured after 21 days relative to control; assay type: functional; parameters: scale not given: the % may be the effect or the level left; details: time 21 day
[25] = system: MV4-11; test: Antiproliferative activity against human MV4-11 cells assessed as cell growth inhibition; assay type: functional
[26] = system: PC-3; test: Antiproliferative activity against human PC-3 cells assessed as cell growth inhibition; assay type: functional
[27] = system: SNU-638; test: Antiproliferative activity against human SNU-638 cells assessed as cell growth inhibition; assay type: functional
[28] = system: A2058; test: Antitumor activity against human A2058 cells xenografted in BALB/c mouse assessed as reduction in tumour volume at 50 mg/kg per day, po administered via oral gavage treated every other day for 14 days relative to control; assay type: functional; parameters: scale not given: the % may be the effect or the level left; details: time 14 day
[29] = Antitumor activity against mouse 4T1-Luc cells xenografted in BALB/c mouse assessed as decrease in lung metastasis at 1 mg/kg, iv measured after 8 days […]; assay type: functional; parameters: scale not given: the % may be the effect or the level left; details: time 8 day
[30] = system: MCF7; test: Antiproliferative activity against human MCF7 cells assessed as cell growth inhibition at 10 uM by crystal violet staining based assay relative to control; assay type: functional; parameters: scale not given: the % may be the effect or the level left

Sequence of Cyclin-dependent kinase 5/CDK5 activator 1 (Q00535 whole entry, the tested form may be a part): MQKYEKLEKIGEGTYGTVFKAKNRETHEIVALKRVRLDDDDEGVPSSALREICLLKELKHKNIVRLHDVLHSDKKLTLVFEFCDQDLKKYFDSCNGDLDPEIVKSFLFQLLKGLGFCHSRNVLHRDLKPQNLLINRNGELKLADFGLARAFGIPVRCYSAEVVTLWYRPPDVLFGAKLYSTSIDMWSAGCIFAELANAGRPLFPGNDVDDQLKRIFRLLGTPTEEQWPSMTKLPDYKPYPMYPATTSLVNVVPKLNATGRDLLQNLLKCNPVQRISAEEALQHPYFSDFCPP
Sequence of Cyclin-dependent kinase 5/CDK5 activator 1 (Q15078 whole entry, further chain, the tested form may be a part): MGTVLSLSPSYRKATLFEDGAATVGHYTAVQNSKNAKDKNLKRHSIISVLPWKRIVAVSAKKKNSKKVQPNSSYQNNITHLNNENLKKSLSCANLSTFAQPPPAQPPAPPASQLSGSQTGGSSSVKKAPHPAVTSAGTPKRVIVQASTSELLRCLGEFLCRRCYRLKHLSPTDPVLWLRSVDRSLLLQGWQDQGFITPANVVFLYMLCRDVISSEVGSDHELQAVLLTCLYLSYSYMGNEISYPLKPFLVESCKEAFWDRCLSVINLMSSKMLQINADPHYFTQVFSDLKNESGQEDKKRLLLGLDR
Sequence of Tyrosine-protein kinase Lyn (P07948 whole entry): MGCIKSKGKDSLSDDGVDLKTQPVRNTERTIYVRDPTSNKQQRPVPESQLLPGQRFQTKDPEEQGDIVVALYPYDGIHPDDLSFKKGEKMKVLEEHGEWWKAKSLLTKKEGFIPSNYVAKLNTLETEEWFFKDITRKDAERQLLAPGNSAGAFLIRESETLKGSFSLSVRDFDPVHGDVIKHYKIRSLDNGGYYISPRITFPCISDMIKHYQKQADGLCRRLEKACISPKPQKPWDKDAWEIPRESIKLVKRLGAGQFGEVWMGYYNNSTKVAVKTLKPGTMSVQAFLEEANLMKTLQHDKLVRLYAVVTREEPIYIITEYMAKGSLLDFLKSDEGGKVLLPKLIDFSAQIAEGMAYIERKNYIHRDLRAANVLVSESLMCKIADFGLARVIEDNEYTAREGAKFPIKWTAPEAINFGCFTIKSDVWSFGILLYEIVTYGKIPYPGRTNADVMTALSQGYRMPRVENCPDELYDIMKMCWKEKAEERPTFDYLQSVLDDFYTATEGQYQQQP
Sequence of Tyrosine-protein kinase JAK2 (O60674 whole entry): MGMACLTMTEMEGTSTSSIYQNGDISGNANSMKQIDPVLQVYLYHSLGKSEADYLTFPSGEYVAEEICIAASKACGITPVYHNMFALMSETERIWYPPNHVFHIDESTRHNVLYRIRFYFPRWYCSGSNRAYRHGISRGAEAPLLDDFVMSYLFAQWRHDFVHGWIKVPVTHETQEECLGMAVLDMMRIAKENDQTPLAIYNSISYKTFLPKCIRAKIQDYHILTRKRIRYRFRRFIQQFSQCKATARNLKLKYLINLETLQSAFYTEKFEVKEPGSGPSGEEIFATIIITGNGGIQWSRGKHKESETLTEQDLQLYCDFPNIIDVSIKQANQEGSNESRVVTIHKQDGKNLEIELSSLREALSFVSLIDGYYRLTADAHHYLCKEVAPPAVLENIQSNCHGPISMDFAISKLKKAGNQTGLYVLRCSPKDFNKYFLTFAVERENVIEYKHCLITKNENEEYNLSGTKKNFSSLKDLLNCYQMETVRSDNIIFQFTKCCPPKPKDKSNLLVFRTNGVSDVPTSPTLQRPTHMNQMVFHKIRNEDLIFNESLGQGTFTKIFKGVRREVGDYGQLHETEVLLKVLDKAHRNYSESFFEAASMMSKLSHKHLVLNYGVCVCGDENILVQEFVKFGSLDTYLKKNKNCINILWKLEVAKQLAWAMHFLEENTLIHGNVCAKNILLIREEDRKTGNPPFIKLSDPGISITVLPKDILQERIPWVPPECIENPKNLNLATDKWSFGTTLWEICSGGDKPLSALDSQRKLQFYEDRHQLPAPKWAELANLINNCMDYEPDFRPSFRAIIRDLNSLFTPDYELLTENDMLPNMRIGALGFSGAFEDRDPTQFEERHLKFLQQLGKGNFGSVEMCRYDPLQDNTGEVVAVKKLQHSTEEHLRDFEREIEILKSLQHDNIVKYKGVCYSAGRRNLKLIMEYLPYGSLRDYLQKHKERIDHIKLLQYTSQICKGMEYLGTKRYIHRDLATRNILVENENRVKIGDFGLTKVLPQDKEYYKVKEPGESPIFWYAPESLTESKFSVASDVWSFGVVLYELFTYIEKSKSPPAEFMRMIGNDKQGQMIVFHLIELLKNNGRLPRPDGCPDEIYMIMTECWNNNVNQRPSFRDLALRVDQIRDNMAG
Sequence of Tyrosine-protein kinase HCK (P08631 whole entry): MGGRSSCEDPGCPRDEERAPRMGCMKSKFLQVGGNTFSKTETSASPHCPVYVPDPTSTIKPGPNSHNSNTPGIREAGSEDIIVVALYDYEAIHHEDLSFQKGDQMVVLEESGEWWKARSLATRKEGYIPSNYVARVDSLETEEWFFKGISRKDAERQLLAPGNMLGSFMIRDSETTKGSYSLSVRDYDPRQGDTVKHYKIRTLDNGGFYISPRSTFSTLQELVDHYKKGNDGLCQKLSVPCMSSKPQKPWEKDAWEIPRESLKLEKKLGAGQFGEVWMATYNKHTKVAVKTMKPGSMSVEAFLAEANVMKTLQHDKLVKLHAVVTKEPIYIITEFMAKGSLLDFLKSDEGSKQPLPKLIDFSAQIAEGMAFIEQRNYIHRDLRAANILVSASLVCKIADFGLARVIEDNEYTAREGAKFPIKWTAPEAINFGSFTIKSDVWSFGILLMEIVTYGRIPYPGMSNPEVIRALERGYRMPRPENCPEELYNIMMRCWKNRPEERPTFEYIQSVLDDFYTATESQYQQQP
Sequence of Tyrosine-protein kinase JAK1 (P23458 whole entry): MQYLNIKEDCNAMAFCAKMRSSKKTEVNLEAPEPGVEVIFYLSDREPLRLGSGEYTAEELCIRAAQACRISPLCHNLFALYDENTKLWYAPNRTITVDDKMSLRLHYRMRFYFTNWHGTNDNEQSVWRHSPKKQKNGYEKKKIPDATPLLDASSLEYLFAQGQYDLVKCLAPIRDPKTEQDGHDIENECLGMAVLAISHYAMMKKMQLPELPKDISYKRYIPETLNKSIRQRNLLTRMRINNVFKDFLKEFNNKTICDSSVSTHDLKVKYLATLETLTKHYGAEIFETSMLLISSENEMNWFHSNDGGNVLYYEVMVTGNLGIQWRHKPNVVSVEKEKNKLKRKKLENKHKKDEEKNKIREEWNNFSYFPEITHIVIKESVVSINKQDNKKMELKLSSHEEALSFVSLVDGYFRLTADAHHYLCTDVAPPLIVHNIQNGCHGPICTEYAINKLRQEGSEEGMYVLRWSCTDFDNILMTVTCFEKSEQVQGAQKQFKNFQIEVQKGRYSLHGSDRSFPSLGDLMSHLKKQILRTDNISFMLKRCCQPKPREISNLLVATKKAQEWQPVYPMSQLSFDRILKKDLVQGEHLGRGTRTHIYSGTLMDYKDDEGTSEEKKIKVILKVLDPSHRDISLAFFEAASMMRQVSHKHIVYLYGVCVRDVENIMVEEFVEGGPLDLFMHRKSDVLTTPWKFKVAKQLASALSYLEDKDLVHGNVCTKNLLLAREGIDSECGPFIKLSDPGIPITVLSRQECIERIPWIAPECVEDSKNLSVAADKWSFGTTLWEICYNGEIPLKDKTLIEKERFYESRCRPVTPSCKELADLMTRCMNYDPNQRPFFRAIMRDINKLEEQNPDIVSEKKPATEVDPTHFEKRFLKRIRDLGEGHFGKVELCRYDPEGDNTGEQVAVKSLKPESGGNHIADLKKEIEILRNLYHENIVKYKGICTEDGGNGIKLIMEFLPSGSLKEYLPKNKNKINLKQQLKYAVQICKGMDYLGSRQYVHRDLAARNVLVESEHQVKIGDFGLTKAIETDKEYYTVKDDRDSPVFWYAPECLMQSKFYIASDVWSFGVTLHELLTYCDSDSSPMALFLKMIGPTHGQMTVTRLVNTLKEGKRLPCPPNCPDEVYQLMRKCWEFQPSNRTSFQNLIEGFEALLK
Sequence of Proto-oncogene tyrosine-protein kinase Src (P12931 2-536 limits assumed): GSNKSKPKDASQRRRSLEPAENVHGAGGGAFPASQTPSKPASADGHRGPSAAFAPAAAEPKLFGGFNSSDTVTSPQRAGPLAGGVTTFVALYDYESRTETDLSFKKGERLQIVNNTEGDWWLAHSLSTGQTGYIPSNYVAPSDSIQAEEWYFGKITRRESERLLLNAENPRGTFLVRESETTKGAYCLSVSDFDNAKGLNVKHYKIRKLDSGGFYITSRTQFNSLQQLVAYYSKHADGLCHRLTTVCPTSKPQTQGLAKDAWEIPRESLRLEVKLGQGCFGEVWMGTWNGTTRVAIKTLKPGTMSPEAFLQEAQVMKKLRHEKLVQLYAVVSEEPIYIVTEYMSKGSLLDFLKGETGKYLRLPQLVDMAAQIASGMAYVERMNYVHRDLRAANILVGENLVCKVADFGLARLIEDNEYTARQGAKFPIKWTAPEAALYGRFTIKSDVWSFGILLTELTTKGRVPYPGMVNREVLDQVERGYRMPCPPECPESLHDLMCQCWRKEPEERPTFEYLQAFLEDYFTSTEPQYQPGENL

IC50 [1]: 760 nM
IC50 [2]: 10.7 nM
IC50 [3]: 760 nM
IC50 [4]: 10.7 nM
IC50 [5]: 10.7 nM
IC50 [6]: 10.7 nM
IC50 [7]: 10.7 nM
IC50 [8]: 10.7 nM
IC50 [9]: 760 nM
SMILES: COc1ccc2c(c1)/C(=C1/Nc3ccccc3/C1=N\OCC(O)CO)C(=O)N2 (stereo not given)

IC50 [12]: 783 nM
SMILES: O=C1Nc2ccc([N+](=O)[O-])cc2/C1=C1/Nc2ccc(O)cc2/C1=N\O
Activity [11]: 90%

IC50 [15]: 7.89 nM
IC50 [17]: 7.89 nM
SMILES: O=C1Nc2ccc(C(=O)O)cc2/C1=C1/Nc2ccccc2/C1=N\O
GI50 [16]: > 1000 nM

IC50 [18]: > 100000 nM
IC50 [22]: > 100000 nM
SMILES: CN1C(=O)/C(=C2\Nc3ccccc3\C2=N/O)c2ccccc21
IC50 [19]: > 100000 nM
IC50 [20]: 68900 nM
IC50 [21]: 73000 nM
IC50 [23]: 58600 nM

Further lines, the compound ahead of its results:

SMILES: Cl.Cl.O=C1Nc2c(Br)cccc2/C1=C1/Nc2ccccc2/C1=N\OCCN1CCNCC1
Activity [10]: 37%

SMILES: Cl.O=C1Nc2ccccc2/C1=C1/Nc2ccccc2/C1=N\OCCN1CCNCC1
Activity [13]: 62.5%
GI50 [14]: 68200 nM

SMILES: COC(=O)c1ccc2c(c1)/C(=C1/Nc3ccccc3/C1=N\OCCN1CCNCC1)C(=O)N2.Cl.Cl
Activity [24]: 100%
GI50 [25]: 1.2 nM
GI50 [26]: 1100 nM
GI50 [27]: 2250 nM

SMILES: O=C1Nc2cc(Br)ccc2/C1=C1/Nc2ccccc2/C1=N\O [6BIO]
Activity [28]: 80%
Activity [29]: 80%
Activity [30]: 75%
